Laboratory results reported in ChEMBL document CHEMBL1201862, “PubChem BioAssay data set” (2004).
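All cell lines were grown in 96-well plates and treated with compound for 48 hours. GI50 is the concentration that inhibits growth by half.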 Active and inactive are the calls of the source. No stated cut-off is given here; in the data, active = GI50 up to about 1.1 µM and inactive = higher.

Assays:
Assay in all cases: inhibition of tumour cell growth, NCI panel, 48 h
SNB-19 = tested on: SNB-19
SK-MEL-28 = tested on: SK-MEL-28
COLO 205 = tested on: COLO 205
OVCAR-4 = tested on: OVCAR-4
HOP-92 = tested on: HOP-92
M14 = tested on: M14
786-0 = tested on: 786-0
HCT-15 = tested on: HCT-15
UO-31 = tested on: UO-31
SK-OV-3 = tested on: SK-OV-3
KM12 = tested on: KM12
K562 = tested on: K562
SK-MEL-2 = tested on: SK-MEL-2
SN12C = tested on: SN12C
MOLT-4 = tested on: MOLT-4
UACC-257 = tested on: UACC-257
UACC-62 = tested on: UACC-62

O=C(CC1(O)C(=O)Nc2c(Cl)cccc21)c1ccccc1 (stereo not drawn)
GI50 (SNB-19): > 100 µM (inactive) | GI50 (SK-MEL-28): > 100 µM (inactive) | GI50 (COLO 205): > 100 µM (inactive) | GI50 (OVCAR-4): 60 µM (inactive) | GI50 (HOP-92): > 100 µM (inactive) | GI50 (M14): > 100 µM (inactive) | GI50 (786-0): > 100 µM (inactive) | GI50 (HCT-15): > 100 µM | GI50 (UO-31): > 100 µM (inactive) | GI50 (SK-OV-3): > 100 µM (inactive) | GI50 (KM12): > 100 µM (inactive) | GI50 (K562): > 100 µM (inactive) | GI50 (SK-MEL-2): > 100 µM (inactive) | GI50 (SN12C): > 100 µM (inactive) | GI50 (MOLT-4): > 100 µM (inactive) | GI50 (UACC-257): > 100 µM (inactive)

COc1cccc(/C=C2\CCC(C)(CN(C)C)C2=O)c1 (stereo not drawn)
GI50 (SNB-19): 34.4 µM (inactive) | GI50 (SK-MEL-28): > 100 µM (inactive) | GI50 (COLO 205): 60.1 µM (inactive) | GI50 (OVCAR-4): 98.4 µM (inactive) | GI50 (HOP-92): > 100 µM (inactive) | GI50 (M14): > 100 µM (inactive) | GI50 (786-0): > 100 µM (inactive) | GI50 (HCT-15): 35.6 µM | GI50 (UO-31): 81.5 µM (inactive) | GI50 (KM12): 92.7 µM (inactive) | GI50 (UACC-62): > 100 µM (inactive) | GI50 (K562): 43.7 µM (inactive) | GI50 (SK-MEL-2): > 100 µM (inactive) | GI50 (SN12C): > 100 µM (inactive) | GI50 (MOLT-4): 48.6 µM (inactive) | GI50 (UACC-257): > 100 µM (inactive)

CN1C(c2ccccc2)CC(=Nc2ccccc2)CC1c1ccccc1 (stereo not drawn)
GI50 (SNB-19): 14.3 µM (inactive) | GI50 (SK-MEL-28): 10.8 µM (inactive) | GI50 (COLO 205): 10.7 µM (inactive) | GI50 (OVCAR-4): 10.4 µM (inactive) | GI50 (HOP-92): 7.78 µM (inactive) | GI50 (M14): 13.5 µM (inactive) | GI50 (786-0): 14.2 µM (inactive) | GI50 (HCT-15): 16.1 µM | GI50 (UO-31): 20.7 µM (inactive) | GI50 (SK-OV-3): 2.95 µM (inactive) | GI50 (K562): 13.2 µM (inactive) | GI50 (MOLT-4): 7.13 µM (inactive) | GI50 (UACC-257): 10.4 µM (inactive)

N#CNCC(COCc1ccccc1)c1ccccc1 (stereo not drawn)
GI50 (SNB-19): > 100 µM (inactive) | GI50 (SK-MEL-28): > 100 µM (inactive) | GI50 (COLO 205): > 100 µM (inactive) | GI50 (OVCAR-4): > 100 µM (inactive) | GI50 (HOP-92): > 100 µM (inactive) | GI50 (M14): > 100 µM (inactive) | GI50 (786-0): > 100 µM (inactive) | GI50 (HCT-15): 86.1 µM | GI50 (UO-31): 46.1 µM (inactive) | GI50 (SK-OV-3): > 100 µM (inactive) | GI50 (UACC-62): > 100 µM (inactive) | GI50 (K562): 40.3 µM (inactive) | GI50 (SK-MEL-2): 43.5 µM (inactive) | GI50 (SN12C): > 100 µM (inactive) | GI50 (MOLT-4): 71.1 µM (inactive)

CCOc1ccc(OCC)c([P+](c2ccccc2)(c2ccccc2)c2ccccc2)c1
GI50 (SNB-19): 0.378 µM (active) | GI50 (SK-MEL-28): 0.818 µM (active) | GI50 (COLO 205): 0.299 µM (active) | GI50 (OVCAR-4): 1.19 µM (inactive) | GI50 (HOP-92): 0.182 µM (active) | GI50 (M14): 0.71 µM (active) | GI50 (786-0): 0.879 µM (active) | GI50 (KM12): 0.178 µM (active) | GI50 (UACC-62): 0.792 µM (active) | GI50 (K562): 0.213 µM (active) | GI50 (SN12C): 0.294 µM (active) | GI50 (UACC-257): 0.215 µM (active)

CCc1ccccc1NC(=O)C1=C(C)NC(C)=C(C(=O)Nc2ccccc2CC)C1c1ccccc1Cl
GI50 (SNB-19): > 100 µM (inactive) | GI50 (SK-MEL-28): > 100 µM (inactive) | GI50 (COLO 205): > 100 µM (inactive) | GI50 (OVCAR-4): > 100 µM (inactive) | GI50 (HOP-92): 57.1 µM (inactive) | GI50 (M14): > 100 µM (inactive) | GI50 (786-0): > 100 µM (inactive) | GI50 (UO-31): 35.5 µM (inactive) | GI50 (SK-OV-3): > 100 µM (inactive) | GI50 (KM12): > 100 µM (inactive) | GI50 (K562): > 100 µM (inactive) | GI50 (SK-MEL-2): > 100 µM (inactive) | GI50 (SN12C): > 100 µM (inactive) | GI50 (MOLT-4): 92.7 µM (inactive) | GI50 (UACC-257): > 100 µM (inactive)

CCOC(=O)C(Sc1ccccc1)c1c(OC)cc(=O)oc1/C=[N+](/[O-])c1ccc(N(C)C)cc1 (stereo not drawn)
GI50 (SNB-19): 54.8 µM (inactive) | GI50 (SK-MEL-28): 17.5 µM (inactive) | GI50 (COLO 205): 22.4 µM (inactive) | GI50 (OVCAR-4): 26.7 µM (inactive) | GI50 (M14): 16.2 µM (inactive) | GI50 (786-0): 19.7 µM (inactive) | GI50 (HCT-15): 15.4 µM | GI50 (UO-31): 18.5 µM (inactive) | GI50 (SK-OV-3): 75.7 µM (inactive) | GI50 (KM12): 21.7 µM (inactive) | GI50 (UACC-62): 22.6 µM (inactive) | GI50 (K562): 6.81 µM (inactive) | GI50 (SK-MEL-2): 24.9 µM (inactive) | GI50 (SN12C): 16.2 µM (inactive) | GI50 (MOLT-4): 13.8 µM (inactive) | GI50 (UACC-257): 14.6 µM (inactive)

C=C1CCC2C(C)(CO)C(O)CCC2(C)C1CC(O)/C(=C/CO)C(=O)O (stereo not drawn)
GI50 (SNB-19): > 100 µM (inactive) | GI50 (COLO 205): > 100 µM (inactive) | GI50 (OVCAR-4): > 100 µM (inactive) | GI50 (HOP-92): > 100 µM (inactive) | GI50 (M14): > 100 µM (inactive) | GI50 (786-0): > 100 µM (inactive) | GI50 (HCT-15): > 100 µM | GI50 (UO-31): > 100 µM (inactive) | GI50 (SK-OV-3): > 100 µM (inactive) | GI50 (KM12): > 100 µM (inactive) | GI50 (UACC-62): > 100 µM (inactive) | GI50 (K562): > 100 µM (inactive) | GI50 (SK-MEL-2): > 100 µM (inactive) | GI50 (SN12C): > 100 µM (inactive) | GI50 (MOLT-4): > 100 µM (inactive) | GI50 (UACC-257): > 100 µM (inactive)

CC1=C(C(=O)Nc2ccccc2)C(c2ccccc2Cl)C(C(=O)Nc2ccccc2)=C(C)N1
GI50 (SNB-19): 24.8 µM (inactive) | GI50 (SK-MEL-28): 27.1 µM (inactive) | GI50 (COLO 205): 19.4 µM (inactive) | GI50 (OVCAR-4): 36.4 µM (inactive) | GI50 (HOP-92): 21.6 µM (inactive) | GI50 (M14): 16.6 µM (inactive) | GI50 (786-0): 19.6 µM (inactive) | GI50 (HCT-15): 20 µM | GI50 (UO-31): 35.6 µM (inactive) | GI50 (SK-OV-3): 37.1 µM (inactive) | GI50 (UACC-62): 13.6 µM (inactive) | GI50 (K562): 38.6 µM (inactive) | GI50 (SK-MEL-2): 18 µM (inactive) | GI50 (SN12C): 18.9 µM (inactive) | GI50 (MOLT-4): 17.4 µM (inactive) | GI50 (UACC-257): 19.4 µM (inactive)

Cc1nc2c(=O)n(C)c(=O)nc-2n(-c2ccc(Cl)cc2)c1C
GI50 (SNB-19): > 100 µM (inactive) | GI50 (SK-MEL-28): > 100 µM (inactive) | GI50 (COLO 205): > 100 µM (inactive) | GI50 (OVCAR-4): 31 µM (inactive) | GI50 (HOP-92): > 100 µM (inactive) | GI50 (M14): 82.6 µM (inactive) | GI50 (786-0): > 100 µM (inactive) | GI50 (HCT-15): 61.9 µM | GI50 (UO-31): 80.4 µM (inactive) | GI50 (SK-OV-3): > 100 µM (inactive) | GI50 (KM12): > 100 µM (inactive) | GI50 (UACC-62): 43.9 µM (inactive) | GI50 (K562): 41.7 µM (inactive) | GI50 (SK-MEL-2): > 100 µM (inactive) | GI50 (SN12C): > 100 µM (inactive) | GI50 (UACC-257): > 100 µM (inactive)

O=C1C(=O)N(c2ccc(Cl)c(Cl)c2)C(=O)C(=O)C1c1nc2ccccc2s1
GI50 (SNB-19): 44 µM (inactive) | GI50 (SK-MEL-28): > 100 µM (inactive) | GI50 (COLO 205): > 100 µM (inactive) | GI50 (OVCAR-4): > 100 µM (inactive) | GI50 (HOP-92): 9.55 µM (inactive) | GI50 (M14): > 100 µM (inactive) | GI50 (786-0): > 100 µM (inactive) | GI50 (HCT-15): 87.1 µM | GI50 (UO-31): > 100 µM (inactive) | GI50 (SK-OV-3): > 100 µM (inactive) | GI50 (UACC-62): > 100 µM (inactive) | GI50 (SK-MEL-2): > 100 µM (inactive) | GI50 (SN12C): > 100 µM (inactive) | GI50 (MOLT-4): > 100 µM (inactive) | GI50 (UACC-257): > 100 µM (inactive)

COc1ccc(C(N)=O)c(OC)c1OCc1ccccc1
GI50 (SNB-19): > 100 µM (inactive) | GI50 (SK-MEL-28): > 100 µM (inactive) | GI50 (COLO 205): > 100 µM (inactive) | GI50 (OVCAR-4): > 100 µM (inactive) | GI50 (HOP-92): > 100 µM (inactive) | GI50 (M14): > 100 µM (inactive) | GI50 (786-0): > 100 µM (inactive) | GI50 (HCT-15): > 100 µM | GI50 (UO-31): > 100 µM (inactive) | GI50 (SK-OV-3): > 100 µM (inactive) | GI50 (KM12): > 100 µM (inactive) | GI50 (UACC-62): > 100 µM (inactive) | GI50 (K562): > 100 µM (inactive) | GI50 (SK-MEL-2): > 100 µM (inactive) | GI50 (SN12C): > 100 µM (inactive) | GI50 (MOLT-4): > 100 µM (inactive)

C[Si](C)(C)[C@@]1([Se]c2ccccc2)CC[C@@H]1C(=O)c1ccccc1
GI50 (SNB-19): 35.8 µM (inactive) | GI50 (SK-MEL-28): 55.2 µM (inactive) | GI50 (COLO 205): > 100 µM (inactive) | GI50 (OVCAR-4): 67.9 µM (inactive) | GI50 (M14): 80.4 µM (inactive) | GI50 (786-0): > 100 µM (inactive) | GI50 (HCT-15): 45.8 µM | GI50 (UO-31): 32.3 µM (inactive) | GI50 (SK-OV-3): > 100 µM (inactive) | GI50 (KM12): 44.9 µM (inactive) | GI50 (UACC-62): 71.4 µM (inactive) | GI50 (K562): 34.5 µM (inactive) | GI50 (SK-MEL-2): 23.7 µM (inactive) | GI50 (SN12C): 61.4 µM (inactive) | GI50 (MOLT-4): 21.3 µM (inactive) | GI50 (UACC-257): 40.6 µM (inactive)
